Data: patent publication US7442794B2, “Rearranged pentanols, a process for their production and their use as anti-inflammatory agents” (Schering AG, priority 2003, dated 2008)

Experiments:
[1] = target: glucocorticoid receptor (GR) (Homo sapiens, UniProt P04150); assay: biochemical
Text: The binding of the substances to the glucocorticoid receptor (GR) and other steroid hormone receptors (mineral corticoid receptor (MR), progesterone receptor (PR) and androgen receptor (AR)) is examined with the aid of recombinantly produced receptors. Cytosol preparations of Sf9 cells, which had been infected with recombinant baculoviruses, which code for the GR, are used for the binding studies.

[2] = tested on: secretion of cytokine IL-8 in human monocyte cell line THP-1 triggered by lipopolysaccharide (LPS); assay: Inhibition of LPS-triggered secretion of cytokine IL-8 in THP-1 cells (ELISA); assay type: cell-based; conditions: LPS-triggered IL-8 secretion, THP-1, supernatant ELISA, read-out: inhibition IC50(IL8)
Method: The concentration of the cytokines was determined in the supernatant by means of commercially available ELISA kits.

Sequence of glucocorticoid receptor (GR) (P04150 whole entry, species assumed): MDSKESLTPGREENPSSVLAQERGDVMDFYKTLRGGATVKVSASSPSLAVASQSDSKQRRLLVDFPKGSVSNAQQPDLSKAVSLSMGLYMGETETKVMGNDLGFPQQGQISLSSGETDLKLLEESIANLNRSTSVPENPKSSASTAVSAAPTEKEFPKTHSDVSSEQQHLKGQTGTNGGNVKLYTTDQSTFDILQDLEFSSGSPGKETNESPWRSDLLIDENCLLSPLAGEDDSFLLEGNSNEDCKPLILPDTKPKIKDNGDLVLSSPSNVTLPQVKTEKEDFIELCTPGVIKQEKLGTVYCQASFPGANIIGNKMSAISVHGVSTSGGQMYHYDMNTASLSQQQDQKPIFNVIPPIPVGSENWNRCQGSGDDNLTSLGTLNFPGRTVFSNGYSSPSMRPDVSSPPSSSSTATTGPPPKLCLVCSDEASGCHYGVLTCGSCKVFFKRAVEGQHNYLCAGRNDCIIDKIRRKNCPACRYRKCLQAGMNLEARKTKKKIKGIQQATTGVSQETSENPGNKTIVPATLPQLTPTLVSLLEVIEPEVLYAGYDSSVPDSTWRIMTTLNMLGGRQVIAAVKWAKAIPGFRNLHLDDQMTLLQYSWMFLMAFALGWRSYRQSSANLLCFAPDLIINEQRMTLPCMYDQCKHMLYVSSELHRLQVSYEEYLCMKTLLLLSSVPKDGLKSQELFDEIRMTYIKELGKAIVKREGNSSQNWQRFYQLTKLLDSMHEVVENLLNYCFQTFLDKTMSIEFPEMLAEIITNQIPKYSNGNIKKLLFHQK

melting point [°C]	IC50 [1] [nM]	IC50 [2] [nM]	SMILES
72 to 73			C=C(C)CC(O)(C(Nc1ccc(F)c2nc(C)ncc12)c1ccc(Cl)cc1OC)C(F)(F)F (racemic) [Example 7, 2-{4-Chloro-alpha-[(8-fluoro-2-methylquinazolin-5-yl)amino]-2-methoxybenzyl}-1,1,1-trifluoro-4-methylpent-4-en-2-ol]
	64	25	C=C(C)CC(O)(C(Nc1cccc2c(=O)[nH]ccc12)c1cc(Br)ccc1O)C(F)(F)F (stereo not drawn) [Example 3, 5-{[1-(5-Bromo-2-hydroxyphenyl)-2-hydroxy-4-methyl-2-(trifluoromethyl)-pent-4-en-1-yl]amino}-isoquinolin-1(2H)-one]
